Results taken from PMC4171207 (Antiviral research, 2014).
Counter-ions that a name gives are not always drawn. Like-named read-outs stand apart in the source and are kept apart here. Marks after values point to notes of the source that are not given here.

Experiments:
5-FU catabolism = assay: LC-MS/MS analysis of 5-fluorouracil metabolism in mice; type: in vivo, BALB/c mice; conditions: for 5-FU concentration in plasma: 5-FU 30 mg/kg i.v. plus test drug 10 mg/kg p.o.
[1] = for Ratio to Plasma: 2 h post final treatment
VZV-BAC-Luc [2] = assay: VZV-BAC-Luc in skin organ culture; type: cell-based, varicella-zoster virus; conditions: read-out: EC50 in SOC; 6 dpi, bioluminescence imaging, mean ± SD
VZV-BAC-Luc [3] = assay: Drug synergy assay; type: cell-based, varicella-zoster virus; conditions: HFFs, 48 h, VZV yield by bioluminescence
VZV-BAC-Luc [4] = assay: microbe, parasite or virus in culture; type: cell-based, varicella-zoster virus; conditions: for SI (CC50/EC50): selectivity index in HFFs
VZV-BAC-Luc [5] = type: in vivo, varicella-zoster virus; conditions: SCID-Hu mice
[6] = test system: human foreskin fibroblasts (HFFs); assay: Neutral red cytotoxicity assay in HFFs; type: cell-based
VZV-BAC-Luc [7] = assay: VZV yield in HFFs by quantitative real-time PCR; type: cell-based, varicella-zoster virus

In the case of `O=c1[nH]cc(F)c(=O)[nH]1` [5-FU, 5-fluorouracil], the “5-FU in plasma (average AUC)” value (5-FU catabolism; 30 min, 5-FU alone 30 mg/kg i.v.) is reported as 1246 nM and the 5-FU in plasma (5-FU catabolism; 60 min, 5-FU alone 30 mg/kg i.v.) is reported as “undetectable”.

With `Nc1nc2c(ncn2COCCO)c(=O)[nH]1` [ACV, Acyclovir, reference compound] the Mortality (120 mg/kg/day) was 0/11.

For `O=c1[nH]c(=O)n([C@H]2C[C@H](O)[C@@H](CO)O2)cc1/C=C/Br` [BVdU, (E)-5-(2-Bromovinyl)-2′-deoxyuridine], the “5-FU concentration in plasma” value (5-FU catabolism; 30 min) was 945 nM, the “5-FU concentration in plasma” value (5-FU catabolism; 60 min) was 685 nM and the “effect on 5-FU catabolism” value (5-FU catabolism; mice, 10 mg/kg p.o. with 5-FU 30 mg/kg i.v.) was “interfered with 5-FU catabolism”.

In the case of `O=c1ccn(C2OC(CO)OC2/C=C/Br)c(=O)[nH]1` [L-BHDU (1), β-L-1-[5-(E-2-Bromovinyl)-2-(hydroxymethyl)-1,3-(dioxolan-4-yl)] uracil], the “concentration in human skin implants relative to EC50” value ([1]; 8 mg/kg/day) is reported as 10 fold, the “Ratio to Plasma” value ([1]; Brain, 8 mg/kg/day) is reported as 0.4 (0.3) and the “Ratio to Plasma” value ([1]; Brain, 150 mg/kg/day) is reported as 0.1 (0.03). The “Ratio to Plasma” value ([1]; Heart, 8 mg/kg/day) was 2.9 (2.5), the “Ratio to Plasma” value ([1]; Heart, 150 mg/kg/day) was 1.0 (0.2) and the “Ratio to Plasma” value ([1]; Kidney, 8 mg/kg/day) was 5.1 (3.1). For the same molecule, the “Ratio to Plasma” value ([1]; Kidney, 150 mg/kg/day) was 2.1 (0.4), the “Ratio to Plasma” value ([1]; Liver, 8 mg/kg/day) was 4.5 (1.1) and the “Ratio to Plasma” value ([1]; Liver, 150 mg/kg/day) was 1.5 (0.3). The “Ratio to Plasma” value ([1]; Lung, 8 mg/kg/day) was 11.2 (5.7), the “Ratio to Plasma” value ([1]; Lung, 150 mg/kg/day) was 2.3 (0.5) and the “Ratio to Plasma” value ([1]; Plasma, 8 mg/kg/day) was 1. For the same molecule, the “Ratio to Plasma” value ([1]; Plasma, 150 mg/kg/day) was 1, the “Ratio to Plasma” value ([1]; Skin (Human) xenograft, 8 mg/kg/day) was 3.1 (2.6) and the “Ratio to Plasma” value ([1]; Skin (Mouse), 8 mg/kg/day) was 3.0 (2.5). The “Ratio to Plasma” value ([1]; Skin (Mouse), 150 mg/kg/day) was 0.9 (0.2), the “Ratio to Plasma” value ([1]; Spleen, 8 mg/kg/day) was 2.1 (1.3) and the “Ratio to Plasma” value ([1]; Spleen, 150 mg/kg/day) was 1.4 (0.2). The EC50 (VZV-BAC-Luc [2]) was 240 ± 20 nM, the “interaction with ACV, BVdU and PFA” value (VZV-BAC-Luc [3]) was “antagonized the activity of ACV, BVdU and foscarnet” and the Mortality (8 mg/kg/day) was 1/5. For the same molecule, the Mortality (15 mg/kg/day) was 0/5, the Mortality (150 mg/kg/day) was 0/5 and the “overt toxicity in vivo” value (mouse, in vivo) was “No overt toxicity”. The weight loss (mouse, in vivo) was “moderate weight loss”, the EC50 (VZV-BAC-Luc [4]; read-out: EC50 in HFFs, 48 hpi, bioluminescence imaging, mean ± SD) was 220 ± 10 nM and the “SI (CC50/EC50)” value (VZV-BAC-Luc [4]) was >909. For the same molecule, the “SI (CC50/EC50)” value (VZV-BAC-Luc [4]; listed as L-BHDU) was > 909, the “Ave. VZV Growth Rate (± SD)” value (VZV-BAC-Luc [5]; 8 mg/kg/day oral gavage) was 0.33 (0.03) Log10(photons/s/day) and the “Ave. VZV Growth Rate (± SD)” value (VZV-BAC-Luc [5]; 8 mg/kg/day oral gavage, listed as L-BHDU) was 0.33 ± 0.03 Log10(photons/s/day). For the same molecule, the “Ave. VZV Growth Rate (± SD)” value (VZV-BAC-Luc [5]; 15 mg/kg/day oral gavage) was 0.25 (0.09) ^* Log10(photons/s/day), the “Ave. VZV Growth Rate (± SD)” value (VZV-BAC-Luc [5]; 15 mg/kg/day oral gavage, listed as L-BHDU) was 0.25 ± 0.9 Log10(photons/s/day) and the “Ave. VZV Growth Rate (± SD)” value (VZV-BAC-Luc [5]; 150 mg/kg/day oral gavage) was 0.22 (0.06) ^* Log10(photons/s/day). The “Ave. VZV Growth Rate (± SD)” value (VZV-BAC-Luc [5]; 150 mg/kg/day oral gavage, listed as L-BHDU) was 0.22 ± 0.6 Log10(photons/s/day), the “cytotoxicity at 200 μM” value ([6]; 200 μM, 3 days) was “noncytotoxic” and the CC50 ([6]; 72 h, neutral red assay) was > 200000 nM. For the same molecule, the “VZV genome copy number” value (VZV-BAC-Luc [7]) was “reduced VZV genome copy number” and the EC50 (VZV-BAC-Luc [7]; read-out: EC50 determined by qPCR, VZV genomes) was ~70 nM.

With `O=C(O)P(=O)(O)O` [PFA, sodium phosphonoformate tribasic hexahydrate, reference compound] the EC50 (VZV-BAC-Luc [4]; Human alphaherpesvirus 3, read-out: EC50 in HFFs) was 40000 nM.

For `CC(C)[C@H](N)C(=O)OCCOCn1cnc2c(=O)[nH]c(N)nc21` [VACV, Valacyclovir HCl, reference compound], the “ABWD (±SD), Average Body Weight Difference from Days 0–7” value (120 mg/kg/day) was −2.9 (1.2) ^* grams, the Mortality (120 mg/kg/day) was 0/11 and the “ABWD (±SD), Average Body Weight Difference from Days 0–7” value (200 mg/kg/day) was −3.6 (1.5) ^* grams. The Mortality (200 mg/kg/day) was 0/10, the “Ave. VZV Growth Rate (± SD)” value (VZV-BAC-Luc [5]; 120 mg/kg/day oral gavage) was 0.40 (0.09) Log10(photons/s/day) and the “effect on VZV replication” value (VZV-BAC-Luc [5]; 120 mg/kg/day) was “had no effect on VZV replication”. For the same molecule, the “Ave. VZV Growth Rate (± SD)” value (VZV-BAC-Luc [5]; 200 mg/kg/day oral gavage) was 0.27 (0.07) ^* Log10(photons/s/day) and the “Ave. VZV Growth Rate (± SD)” value (VZV-BAC-Luc [5]; 200 mg/kg/day oral gavage, listed as Valacyclovir) was 0.27 ± 0.07 Log10(photons/s/day).
